Structures are written as SMILES. Where only a bound is given, the exact number is not on record here.

One assay has as its system HL60. As to the kind of experiment: AML cell line anti-proliferation (cell viability, ATPlite or CyQuant). In kind it is cell-based. As to conditions: Homo sapiens, HL-60, 240 h; HL60 (APL cell line); five or ten days incubation; read-out: Tamibarotene anti-proliferative potency (EC50). For orientation: In ATP-based viability assays light output follows the ATP content of the culture.

In another assay the test system is AM7440 xenografts. As to the kind of experiment: AML patient sample-derived xenograft model. The note with it: 6 mg per kg orally daily. In kind it is in vivo, BALB/c nude immunocompromised mice. As to the method: (§1) Different AML patient sample (AM8096, AM5512, AM7577 and AM7440)-derived xenograft models in BALB/c nude immunocompromised mice are prepared by Crown Biosciences (Beijing, China) essentially as follows.
(§2) Approximately 2×10^6 cells from each patient sample are suspended in 100 μL PBS and injected into separate mice (n=3 for each different patient sample and for the control) by IV tail injection. For AM5512, AM7577 and AM7440 xenografts, tumor burden is considered high enough to start treatment when the concentration of human CD45^+ cells reaches ˜1-5% in the animal's peripheral blood. Human CD45^+ cells are detected in mouse blood (obtained via eye bleeds) using a fluorescence activated cell sorter and FITC anti-human CD45 (Biolegend, Cat#304037). For AM8096 xenografts, treatment is begun 40 days after injection of cells.
(§3) Tamibarotene is administered orally in pH 8 adjusted PBS, 1% DMSO on a daily schedule at a final dose of 6 mg per kg body weight in a 10 ml/kg volume. Mice in the vehicle arm are given the same schedule, volume, and formulation, but lacking tamibarotene. Human CD45^+ cell levels in peripheral blood from the treated animals and control animals are measured once a week.
On the technique in general: In xenograft studies the graft and the host belong to different species.

The subject of a further assay is AM8096 xenografts. As to the kind of experiment: AML patient sample-derived xenograft model. In kind it is in vivo, BALB/c nude immunocompromised mice. As to conditions: 6 mg per kg orally daily, after 35 days of treatment. How it is done:
as §1, §2, §3

The test system of another assay is AM5512 xenografts. As to the kind of experiment: AML patient sample-derived xenograft model. In kind it is in vivo, BALB/c nude immunocompromised mice. The note with it: 6 mg per kg orally daily, after 35 days of treatment. How it is done:
as §1, §2, §3

The next assay relates to AM7577 xenografts. The assay is described as follows: AML patient sample-derived xenograft model. Format: in vivo, BALB/c nude immunocompromised mice. The note with it: 6 mg per kg orally daily. As to the method: as §1, §2, §3
The subject of another assay is EOL-1. The assay is described as follows: AML cell line anti-proliferation (cell viability, ATPlite or CyQuant). In kind it is cell-based. As to conditions: Homo sapiens, EOL1, 240 h; EOL-1 AML cell line; five or ten days incubation; read-out: Tamibarotene anti-proliferative potency (EC50).
For another assay, the system named is OCI-AML3. The assay is described as above. In kind it is cell-based, human.
In the next assay the test system is MV4-11. Described as above. Format: cell-based, human.
A further assay deals with HEL. The description is as above. Format: cell-based. As to conditions: Homo sapiens, 240 h, five or ten days incubation, read-out: Tamibarotene anti-proliferative potency (EC50).
The test system of another assay is Nomo-1. Described as above. In kind it is cell-based, human.
Another assay concerns OCI-AML2. The description is as above. The note with it: Homo sapiens, 240 h, five or ten days incubation, read-out: Tamibarotene anti-proliferative potency (EC50). Format: cell-based.
In a further assay the test system is KG-1a. Described as above. Format: cell-based, human.
The next assay relates to Kasumi-1. The description is as above. In kind it is cell-based, human.
Another assay concerns PL21. Described as above. In kind it is cell-based. The note with it: Homo sapiens, PL-21, 240 h, five or ten days incubation, read-out: Tamibarotene anti-proliferative potency (EC50).
Another assay has as its system Sig-M5. Described as above. In kind it is cell-based, human.
In another assay the test system is THP-1. The description is as above. Format: cell-based. As to conditions: Homo sapiens, 240 h; THP-1 AML cell line; five or ten days incubation; read-out: Tamibarotene anti-proliferative potency (EC50).
The subject of the next assay is OCI-M1. The assay is described as above. In kind it is cell-based, human.

One may read the EC50 as the concentration giving half of the maximal effect. For the molecule `CC1(C)CCC(C)(C)c2cc(NC(=O)c3ccc(C(=O)O)cc3)ccc21` [tamibarotene], the EC50 was 1.64 nM in the assay on HL60; 0.89 nM in the assay with EOL-1; 0.34 nM in the assay on OCI-AML3 (Homo sapiens, OCI-AML-3, 240 h, OCI-AML3 AML cell line, five or ten days incubation, read-out: Tamibarotene anti-proliferative potency (EC50)); 0.17 nM in the assay on MV4-11 (Homo sapiens, 240 h, MV4-11 AML cell line, five or ten days incubation, read-out: Tamibarotene anti-proliferative potency (EC50)); over 50000 nM in the assay with HEL; 0.48 nM in the assay on Nomo-1 (Homo sapiens, 240 h, Nomo-1 AML cell line, five or ten days incubation, read-out: Tamibarotene anti-proliferative potency (EC50)). The concentration giving a half-maximal response (EC50) in the assay with OCI-AML2 is 0.34 nM; in the assay with KG-1a (Homo sapiens, 240 h, KG-1a AML cell line, five or ten days incubation, read-out: Tamibarotene anti-proliferative potency (EC50)), over 50000 nM; in the assay on Kasumi-1 (Homo sapiens, 240 h, Kasumi-1 AML cell line, five or ten days incubation, read-out: Tamibarotene anti-proliferative potency (EC50)), over 50000 nM; with PL21, 1.41 nM; with Sig-M5 (Homo sapiens, 240 h, Sig-M5 AML cell line, five or ten days incubation, read-out: Tamibarotene anti-proliferative potency (EC50)), 0.46 nM; in the assay with THP-1, 0.95 nM. Moreover, the EC50 with OCI-M1 (Homo sapiens, 240 h, OCI-M1 AML cell line, five or ten days incubation, read-out: Tamibarotene anti-proliferative potency (EC50)) is over 50000 nM. Moreover, the “tumor volume between tamibarotene treated and vehicle treated animals, overall or in blood, bone marrow or spleen” value in the assay with AM7440 xenografts and in the assay on AM7577 xenografts was “no significant reduction” in each case. The “total % of CD45+ cells and % of CD45+ cells in blood, bone marrow and spleen, compared to the vehicle control” value in the assay on AM8096 xenografts and with AM5512 xenografts was “significant reduction” throughout. Also, the “sensitivity of cell line to tamibarotene” value is “sensitive” in the assay with OCI-AML3 (OCI-AML3); “sensitive” with MV4-11 (MV-4-11); “sensitive” in the assay with Nomo-1 (NOMO-1); “insensitive” in the assay with KG-1a (KG1a); “insensitive” in the assay with Kasumi-1 (Kasumi-1); “sensitive” with Sig-M5 (Sig-M5). The “sensitivity of cell line to tamibarotene” value in the assay on OCI-M1 (OCI-M1) is reported as “insensitive”.
